Reference: patent US10780094B2, “Use of carbonic anhydrase inhibitors for treatment of neurological and psychiatric disorders” (New York University, priority 2016, dated 2020)

Assays:
SH-SY5Y and D3 cells = assay: Aβ-induced cell death pathways (caspase 3 and 9 activation, CytC release, apoptosis); format: cell-based, human
Description: SH-SY5Y and D3 cells were plated on 15 mm optical borosilicate poly-L-lysine-coated sterile glass covers (ThermoFisher, Waltham, Mass., US) at a 70% confluence. After 24 hours, cells were treated with the peptides, the drugs or the different combinations of both of them, rinsed in PBS 1×, and fixed with 4% paraformaldehyde for 20 minutes. After that, the coverslips were washed once for 5 minute with PBS 1×, room temperature and twice for 5 minutes with cold PBS 1×. Cells were then permeabilized and blocked for 1 h with BSA 20 mg/mL+Triton 0.3% on PBS and incubated with the anti-active caspase-3 antibody, on PBS containing BSA 5 mg/mL, for 2 h. Next, cells were washed three times for 5 min each with PBS 1× and incubated with the secondary antibody (Alexa Fluor 488 anti-mouse antibody), at a 1:200 dilution in PBS containing BSA 5 mg/mL for an additional hour in the dark. Cells were then washed three times in the dark with 1 mL of PBS 1× and mounted on cover slips (ThermoFisher, Waltham, Mass., US). After mounting, cells were imaged, using a Nikon Eclipse Ti inverted microscope with a 20× objective (Nikon, Chiyoda. Tokyo, Japan).
Cells were plated at a confluence of 10.000 cells per well in 96-wells microplate luminescence microtiter (ThermoFisher, Waltham, Mass., US). The day after, cells were treated with the peptides and/or drugs for the experimental times. After that, caspase-Glo 9 assay was performed, following the protocol provided from the manufacturer. Luminescence was measured using a FlexStation 3 Multi-Mode Microplate Reader (Molecular devices, Sunnyvalem Calif., US).
20.000 cells per well were plated on 24-wells plates. The day after, cells were treated with peptides and/or drugs, following the experimental conditions.

C57BL/6 mice = assay: Intra-hippocampal Aβ40-Q22 injection, immunohistochemistry; format: in vivo, mouse
Description: Six months old C57BL/6 mice were anesthetized with a mixture of ketamine and xylazine (120 and 10 mg/Kg respectively) i.p. and fixed to a stereotaxic frame (David Kopf Instruments, Tujunga, CaliforniaKopf). The body temperature was maintained stable with the use of a heating pad (Harvard Apparatus, Holliston, Mass.) for the total time of the surgery. A volume of 1 μl of a 10 μM fresh solution of Aβ40-Q22—chosen for its propensity to form toxic oligomers, and not fibrils, in the first few hours after solubilization—(Fossati et al., 2010) in PBS, or the vehicle for control mice, was injected in the hippocampus (Coordinates: AP=−2.7, L=−3.0 and H=−4.0, according to the Atlas of Paxinos and Franklin) at a flow rate of 0.1 μl/min. The needle (Hamilton 701 RN 10 μl syringe, RN needle 30/2″/3S) was left in place for two minutes and then slowly withdrawn. In the cases in which MTZ treatment was administered, mice were injected intraperitoneally with a solution of MTZ (20 mg/kg) 1 h before the Aβ40-Q22 intrahippocampal injection. At the selected time after injections, the animals were sacrificed by trans-cardiac perfusion (medium flow pump, Fisher Scientific 13-876-2, 10 ml/min flow rate) with PBS for 2 minutes followed by 4% paraphormaldehyde for 5 minutes. Brains were then removed from the skull and postfixed in 4% paraphormaldehyde for 2 h at 4° C. […] Brains were then washed in PBS, assembled in a plastic mold with Tissue-Tek O.C.T. compound (Fisher Scientific), and frozen with a mixture of liquid nitrogen and isopenthanol. Serial cryostat sections of 8 μm thickness were collected on positively charged microscope slides (Fisher Scientific) and stored at −80° C. until further immunohistochemical analysis.
For immunohistochemical staining, slices were warmed to RT for 5′ prior to use, rinsed in PBS and blocked with Mouse on Mouse (MOM) blocking reagent (2 drops in 2.5 ml of PBS, Vector Laboratories, Burlingame, Calif.) for 20 minutes. Incubation with the rabbit monoclonal antibody against active caspase-3 (Cell Signaling Technology) was performed overnight at 4° C. in PBS containing 0.1% triton X-100 and 5 mg/ml BSA. The day after, the sections were washed three times with PBS and incubated in Alexa Fluor 488- or 633-conjugated anti-rabbit IgG (Life Technologies; 1:200 in PBST with 5 mg/ml BSA; 1 h at RT), followed by primary anti-Aβ 6E10 (1:200 in PBS+MOM for 2 hours at RT), and by secondary Alexa Fluor 568 anti-mouse IgG. Finally, the slices were washed and the DNA counterstained with TO-PRO (Life Technologies) 1:1000 for 10 min, or with NeuN green neuronal staining (1:100 in PBS for 1 hour, Millipore, Temecula, Calif.). For staining of active microglial cells, tissue sections were incubated with anti IBA1 goat antibody (Abcam, Cambridge, Mass.) 1:200 in PBS containing 0.1% Triton and 5 mg/ml BSA for 1 hour, followed by Alexa Fluor 488 anti-goat IgG (1 hour). After washing, slides were mounted with an aqueous mounting medium (Vector Laboratories). Images were acquired in a Zeiss LSM 510 confocal microscope using 40× or 100× oil lens and processed using Image J and Adobe Photoshop. Images were acquired maintaining constant exposure for all samples across single experiments. For quantifications, stained brain slices corresponding to the injection site area of 3 or more animals were quantified with Image J. The total area of NeuN, caspase 3, Aβ and IBA1 positive cells was quantified and compared between different treatments.

Aβ42 and Aβ40-Q22 = target: T1, Aβ42 and Aβ40-Q22 (Homo sapiens, UniProt P05067, E693Q); assay: Thioflavin T binding assay of Aβ aggregation; conditions: 100 or 300 μM MTZ; aggregation up to 3 days
T1 construct: purchased James I. Elliott at Yale University (custom chemical peptide synthesis)
Description: Binding of the different Aβ peptides to Thioflavin-T was monitored by fluorescence evaluation, as described (Fossati et al., 2010; Walsh et al., 1999). Briefly, after peptide aggregation at 50 μM concentration in culture media in the presence or absence of MTZ, 6 μl aliquots from each of the time-points were added to 184 μl of 50 mM Tris-HCl buffer, pH 8.5, and 10 μl of 0.1 mM Thioflavin-T (Sigma). Fluorescence was recorded for 300 s in a LS-50B luminescence spectrometer (Perkin Elmer, Waltham, Mass.) with excitation and emission wavelengths of 435 and 490 nm (slit width 10 nm), respectively, as described (Solito et al., 2009; Viana et al., 2009).

[1] = MTZ IP one hour before peptide injection

Compound | caspase activation and CytC release induced by Aβ (SH-SY5Y and D3 cells; ATZ) | effective concentration lower than that of MTZ (SH-SY5Y and D3 cells; ATZ versus MTZ) [times] | nuclear chromatin condensation indicative of apoptosis (SH-SY5Y and D3 cells; Aβ challenge, FIGS. 16A-16B) | activation of caspase-3 induced by Aβ in CA1 neurons (C57BL/6 mice; 20 mg/Kg MTZ IP 1 hour prior to Aβ40-Q22 injection, sacrificed 4 hours after) | Aβ staining in the injected hemisphere (C57BL/6 mice; Aβ in the presence or absence of MTZ, FIG. 9A) | active-caspase 3 staining in IBA1- and Aβ-positive microglia (C57BL/6 mice; MTZ IP before Aβ injection) | caspase activation in the vicinity of the injection site (C57BL/6 mice; [1]) | loss of NeuN immunoreactivity in the vicinity of the injection site (C57BL/6 mice; [1]) | brain entry after systemic administration (C57BL/6 mice; inferred from efficacy after IP dosing) | Aβ fibrillization by Thioflavin T fluorescence (Aβ42 and Aβ40-Q22)
CC(=O)Nc1nnc(S(N)(=O)=O)s1 [ATZ, acetazolamide] | completely reverting | 10 | prevented |  |  |  |  |  |  | 
CC(=O)/N=c1/sc(S(N)(=O)=O)nn1C [MTZ, methazolamide] |  |  |  | prevented | similarly increased | notably lower | significantly reduced | significantly reduced | can enter the mouse brain | no significant difference in fibrillization
